# Reference: ChEMBL document CHEMBL1140797, “Structure and property based design of factor Xa inhibitors: pyrrolidin-2-ones with biaryl P4 motifs” (Bioorg Med Chem Lett, 2008)
# Target: T1, Coagulation factor X (Homo sapiens, UniProt P00742)
# Assay: Inhibition of human F10a by fluorescence assay
# Settings: not given
# T1 sequence (P00742 41-179 limits assumed): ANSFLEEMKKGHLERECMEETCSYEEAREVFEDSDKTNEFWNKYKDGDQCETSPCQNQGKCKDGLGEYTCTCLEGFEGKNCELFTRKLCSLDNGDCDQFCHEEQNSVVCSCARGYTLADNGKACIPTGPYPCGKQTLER
# T1 sequence (P00742 235-488 limits assumed): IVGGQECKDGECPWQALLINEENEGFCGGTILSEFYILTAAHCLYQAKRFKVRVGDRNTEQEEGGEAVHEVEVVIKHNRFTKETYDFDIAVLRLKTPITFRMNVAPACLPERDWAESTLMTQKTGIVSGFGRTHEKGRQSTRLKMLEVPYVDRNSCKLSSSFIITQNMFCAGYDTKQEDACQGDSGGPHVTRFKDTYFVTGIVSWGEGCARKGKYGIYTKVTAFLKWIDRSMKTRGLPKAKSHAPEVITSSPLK
row,SMILES,Ki
1,O=C1C(NS(=O)(=O)c2ccc3cc(Cl)ccc3c2)CCN1c1ccc(-c2ccoc2)cc1F (stereo not given),74.6 nM
2,O=C1C(NS(=O)(=O)c2ccc3cc(Cl)ccc3c2)CCN1c1ccc(-c2ccncc2)cc1F (stereo not given),8.9 nM
3,CN(C)C(=O)c1ccccc1-c1ccc(N2CCC(NS(=O)(=O)/C=C/c3ccc(Cl)s3)C2=O)nc1 (stereo not given),11.8 nM
4,CN(c1ccccc1-c1ccc(N2CCC(NS(=O)(=O)/C=C/c3ccc(Cl)s3)C2=O)nc1)S(C)(=O)=O (stereo not given),9.1 nM
5,O=C1C(NS(=O)(=O)c2ccc3cc(Cl)ccc3c2)CCN1c1ccc(-c2cccnc2)cc1F (stereo not given),6.3 nM
6,CC(C)Oc1ccccc1-c1ccc(N2CCC(NS(=O)(=O)/C=C/c3ccc(Cl)s3)C2=O)nc1 (stereo not given),180 nM
7,Cn1cnc(-c2ccc(N3CCC(NS(=O)(=O)c4ccc5cc(Cl)ccc5c4)C3=O)c(F)c2)c1 (stereo not given),15.5 nM
8,O=C1C(NS(=O)(=O)c2ccc3cc(Cl)ccc3c2)CCN1c1ccc(-c2ccccc2)cc1F (stereo not given),215 nM
9,O=C1C(NS(=O)(=O)c2ccc3cc(Cl)ccc3c2)CCN1c1ccc(-c2ccccc2)cn1 (stereo not given),80 nM

# Now from value to compound:
row,Ki,SMILES
1,0.7 nM,N#Cc1ncccc1-c1ccc(N2CCC(NS(=O)(=O)c3ccc4cc(Cl)ccc4c3)C2=O)c(F)c1 (stereo not given)
2,2 nM,CS(=O)(=O)c1ccccc1-c1ccc(N2CCC(NS(=O)(=O)c3cc4nc(Cl)ccc4s3)C2=O)c(F)c1 (stereo not given)
3,0.4 nM,CN(C)S(=O)(=O)c1ccccc1-c1ccc(N2CCC(NS(=O)(=O)/C=C/c3ccc(Cl)s3)C2=O)nc1 (stereo not given)
4,6 nM,O=C1C(NS(=O)(=O)/C=C/c2ccc(Cl)s2)CCN1c1ccc(-c2ccccc2C(F)(F)F)cn1 (stereo not given)
5,4.4 nM,O=C1C(NS(=O)(=O)c2ccc3cc(Cl)ccc3c2)CCN1c1ccc(-n2ccnc2)cc1F (stereo not given)
6,< 0.4 nM,CS(=O)(=O)c1ccccc1-c1ccc(N2CCC(NS(=O)(=O)/C=C/c3ccc(Cl)cc3)C2=O)c(F)c1 (stereo not given)
7,1.8 nM,N#Cc1ccccc1-c1ccc(N2CCC(NS(=O)(=O)/C=C/c3ccc(Cl)s3)C2=O)nc1 (stereo not given)
8,6.2 nM,CS(=O)(=O)c1ccccc1-c1ccc(N2CCC(NS(=O)(=O)c3cc4cc(Cl)ccc4o3)C2=O)c(F)c1 (stereo not given)
9,< 0.3 nM,CNS(=O)(=O)c1ccccc1-c1ccc(N2CCC(NS(=O)(=O)/C=C/c3ccc(Cl)s3)C2=O)nc1 (stereo not given)
10,1.1 nM,Cn1ccnc1-c1ccc(N2CCC(NS(=O)(=O)c3ccc4cc(Cl)ccc4c3)C2=O)c(F)c1 (stereo not given)
11,2.7 nM,O=C1C(NS(=O)(=O)c2ccc3cc(Cl)ccc3c2)CCN1c1ccc(-n2cccn2)cc1F (stereo not given)
12,1.1 nM,CS(=O)(=O)c1ccccc1-c1ccc(N2CCC(NS(=O)(=O)c3cc4ccc(Cl)cc4o3)C2=O)c(F)c1 (stereo not given)
13,0.1 nM,CS(=O)(=O)c1ccccc1-c1ccc(N2CCC(NS(=O)(=O)/C=C/c3cc4ccc(Cl)cc4s3)C2=O)c(F)c1 (stereo not given)

# Target: Albumin (Homo sapiens, UniProt P02768)
# Assay: Binding affinity to human serum albumin
# Type: ADME
# Settings: isolated protein
# Chain of Albumin (P02768 whole entry): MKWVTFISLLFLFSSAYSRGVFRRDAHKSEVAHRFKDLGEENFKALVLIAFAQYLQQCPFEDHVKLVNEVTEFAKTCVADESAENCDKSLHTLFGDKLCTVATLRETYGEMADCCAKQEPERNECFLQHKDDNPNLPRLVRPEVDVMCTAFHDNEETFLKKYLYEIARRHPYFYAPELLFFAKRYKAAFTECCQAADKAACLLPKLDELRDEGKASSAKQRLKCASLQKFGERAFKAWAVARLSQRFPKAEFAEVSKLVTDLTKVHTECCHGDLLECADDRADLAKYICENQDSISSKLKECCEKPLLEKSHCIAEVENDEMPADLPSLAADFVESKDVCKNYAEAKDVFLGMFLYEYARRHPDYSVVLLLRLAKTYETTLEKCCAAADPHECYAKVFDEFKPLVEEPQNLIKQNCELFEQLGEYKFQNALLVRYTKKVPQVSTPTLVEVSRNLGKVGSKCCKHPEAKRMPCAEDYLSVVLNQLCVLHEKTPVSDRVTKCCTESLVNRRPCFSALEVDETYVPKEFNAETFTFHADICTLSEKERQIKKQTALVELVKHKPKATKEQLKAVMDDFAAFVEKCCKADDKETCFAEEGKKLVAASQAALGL
row,Activity,SMILES
1,97.6%,CS(=O)(=O)c1ccccc1-c1ccc(N2CCC(NS(=O)(=O)/C=C/c3ccc(Cl)s3)C2=O)c(F)c1 (stereo not given)
2,98%,NS(=O)(=O)c1ccccc1-c1ccc(N2CCC(NS(=O)(=O)/C=C/c3ccc(Cl)s3)C2=O)nc1 (stereo not given)
3,97.6%,CS(=O)(=O)c1ccccc1-c1ccc(N2CCC(NS(=O)(=O)/C=C/c3ccc(Cl)s3)C2=O)nc1 (stereo not given)
4,98.2%,CS(=O)(=O)Nc1ccccc1-c1ccc(N2CCC(NS(=O)(=O)/C=C/c3ccc(Cl)s3)C2=O)nc1 (stereo not given)
5,98.8%,CS(=O)(=O)c1ccccc1-c1ccc(N2CCC(NS(=O)(=O)c3ccc4cc(Cl)ccc4c3)C2=O)c(F)c1 (stereo not given)
6,99.6%,CS(=O)(=O)c1ccccc1-c1ccc(N2CCC(NS(=O)(=O)c3cc4ccc(Cl)cc4o3)C2=O)c(F)c1 (stereo not given)

# Target: T1, Coagulation factor X
# Assay: Inhibition of human F10a by chromogenic assay
# Settings: not given
row,Ki,SMILES
1,14 nM,CS(=O)(=O)Nc1ccccc1-c1ccc(N2CCC(NS(=O)(=O)/C=C/c3ccc(Cl)s3)C2=O)nc1 (stereo not given)
2,2330 nM,CC(C)(C)c1ccccc1-c1ccc(N2CCC(NS(=O)(=O)/C=C/c3ccc(Cl)s3)C2=O)nc1 (stereo not given)

# Tested on: not listed separately
# Assay: Volume of distribution at steady state in Sprague-Dawley rat
# Type: ADME, organism-based
# Settings: in vivo, read-out: Vdss
row,Vd,SMILES
1,0.7 L/kg,CS(=O)(=O)c1ccccc1-c1ccc(N2CCC(NS(=O)(=O)/C=C/c3ccc(Cl)s3)C2=O)nc1 (stereo not given)
2,1.1 L/kg,CS(=O)(=O)c1ccccc1-c1ccc(N2CCC(NS(=O)(=O)c3ccc4cc(Cl)ccc4c3)C2=O)c(F)c1 (stereo not given)
3,0.5 L/kg,CS(=O)(=O)c1ccccc1-c1ccc(N2CCC(NS(=O)(=O)/C=C/c3ccc(Cl)cc3)C2=O)c(F)c1 (stereo not given)

# Tested on: not listed separately
# Assay: Half life in Sprague-Dawley rat
# Type: ADME, organism-based
# Settings: in vivo
row,half-life,SMILES
1,36 min,CS(=O)(=O)c1ccccc1-c1ccc(N2CCC(NS(=O)(=O)/C=C/c3ccc(Cl)s3)C2=O)nc1 (stereo not given)
2,54 min,CS(=O)(=O)c1ccccc1-c1ccc(N2CCC(NS(=O)(=O)c3ccc4cc(Cl)ccc4c3)C2=O)c(F)c1 (stereo not given)
3,48 min,CS(=O)(=O)c1ccccc1-c1ccc(N2CCC(NS(=O)(=O)/C=C/c3ccc(Cl)cc3)C2=O)c(F)c1 (stereo not given)

# Tested on: not listed separately
# Assay: Oral bioavailability in Sprague-Dawley rat
# Type: ADME, organism-based
# Settings: in vivo
row,bioavailability,SMILES
1,29%,CS(=O)(=O)c1ccccc1-c1ccc(N2CCC(NS(=O)(=O)/C=C/c3ccc(Cl)s3)C2=O)nc1 (stereo not given)
2,10%,CS(=O)(=O)c1ccccc1-c1ccc(N2CCC(NS(=O)(=O)c3ccc4cc(Cl)ccc4c3)C2=O)c(F)c1 (stereo not given)
3,41%,CS(=O)(=O)c1ccccc1-c1ccc(N2CCC(NS(=O)(=O)/C=C/c3ccc(Cl)cc3)C2=O)c(F)c1 (stereo not given)

# Tested on: not listed separately
# Assay: Plasma clearance in Sprague-Dawley rat
# Type: ADME, organism-based
# Settings: not given
row,clearance,SMILES
1,20 mL/min/kg,CS(=O)(=O)c1ccccc1-c1ccc(N2CCC(NS(=O)(=O)/C=C/c3ccc(Cl)s3)C2=O)nc1 (stereo not given)
2,20 mL/min/kg,CS(=O)(=O)c1ccccc1-c1ccc(N2CCC(NS(=O)(=O)c3ccc4cc(Cl)ccc4c3)C2=O)c(F)c1 (stereo not given)
3,9.2 mL/min/kg,CS(=O)(=O)c1ccccc1-c1ccc(N2CCC(NS(=O)(=O)/C=C/c3ccc(Cl)cc3)C2=O)c(F)c1 (stereo not given)

# Tested on: Plasma
# Assay: Anticoagulant activity in human plasma assessed as drug level causing 1.5 times prolongation of prothrombin time
# Type: functional
# Settings: not given
row,SMILES,Activity
1,O=C1C(NS(=O)(=O)c2ccc3cc(Cl)ccc3c2)CCN1c1ccc(-c2ccoc2)cc1F (stereo not given),>100 µM
2,N#Cc1ncccc1-c1ccc(N2CCC(NS(=O)(=O)c3ccc4cc(Cl)ccc4c3)C2=O)c(F)c1 (stereo not given),64.3 µM
3,O=C1C(NS(=O)(=O)c2ccc3cc(Cl)ccc3c2)CCN1c1ccc(-c2ccncc2)cc1F (stereo not given),92.9 µM
4,CS(=O)(=O)c1ccccc1-c1ccc(N2CCC(NS(=O)(=O)c3cc4nc(Cl)ccc4s3)C2=O)c(F)c1 (stereo not given),> 100 µM
5,CS(=O)(=O)Nc1ccccc1-c1ccc(N2CCC(NS(=O)(=O)/C=C/c3ccc(Cl)s3)C2=O)nc1 (stereo not given),58.4 µM
6,CN(C)S(=O)(=O)c1ccccc1-c1ccc(N2CCC(NS(=O)(=O)/C=C/c3ccc(Cl)s3)C2=O)nc1 (stereo not given),65.1 µM
7,CN(C)C(=O)c1ccccc1-c1ccc(N2CCC(NS(=O)(=O)/C=C/c3ccc(Cl)s3)C2=O)nc1 (stereo not given),78.6 µM
8,O=C1C(NS(=O)(=O)/C=C/c2ccc(Cl)s2)CCN1c1ccc(-c2ccccc2C(F)(F)F)cn1 (stereo not given),>100 µM
9,CN(c1ccccc1-c1ccc(N2CCC(NS(=O)(=O)/C=C/c3ccc(Cl)s3)C2=O)nc1)S(C)(=O)=O (stereo not given),>100 µM
10,O=C1C(NS(=O)(=O)c2ccc3cc(Cl)ccc3c2)CCN1c1ccc(-c2cccnc2)cc1F (stereo not given),>100 µM
11,O=C1C(NS(=O)(=O)c2ccc3cc(Cl)ccc3c2)CCN1c1ccc(-n2ccnc2)cc1F (stereo not given),>100 µM
12,CS(=O)(=O)c1ccccc1-c1ccc(N2CCC(NS(=O)(=O)/C=C/c3ccc(Cl)cc3)C2=O)c(F)c1 (stereo not given),30 µM
13,N#Cc1ccccc1-c1ccc(N2CCC(NS(=O)(=O)/C=C/c3ccc(Cl)s3)C2=O)nc1 (stereo not given),73.7 µM
14,CC(C)Oc1ccccc1-c1ccc(N2CCC(NS(=O)(=O)/C=C/c3ccc(Cl)s3)C2=O)nc1 (stereo not given),>100 µM
15,CS(=O)(=O)c1ccccc1-c1ccc(N2CCC(NS(=O)(=O)c3cc4cc(Cl)ccc4o3)C2=O)c(F)c1 (stereo not given),>100 µM
16,CNS(=O)(=O)c1ccccc1-c1ccc(N2CCC(NS(=O)(=O)/C=C/c3ccc(Cl)s3)C2=O)nc1 (stereo not given),25 µM
17,Cn1ccnc1-c1ccc(N2CCC(NS(=O)(=O)c3ccc4cc(Cl)ccc4c3)C2=O)c(F)c1 (stereo not given),54.5 µM
18,O=C1C(NS(=O)(=O)c2ccc3cc(Cl)ccc3c2)CCN1c1ccc(-n2cccn2)cc1F (stereo not given),>100 µM
19,Cn1cnc(-c2ccc(N3CCC(NS(=O)(=O)c4ccc5cc(Cl)ccc5c4)C3=O)c(F)c2)c1 (stereo not given),>100 µM
20,O=C1C(NS(=O)(=O)c2ccc3cc(Cl)ccc3c2)CCN1c1ccc(-c2ccccc2)cc1F (stereo not given),>100 µM
21,CS(=O)(=O)c1ccccc1-c1ccc(N2CCC(NS(=O)(=O)c3cc4ccc(Cl)cc4o3)C2=O)c(F)c1 (stereo not given),>100 µM
22,CS(=O)(=O)c1ccccc1-c1ccc(N2CCC(NS(=O)(=O)/C=C/c3cc4ccc(Cl)cc4s3)C2=O)c(F)c1 (stereo not given),28.7 µM
23,O=C1C(NS(=O)(=O)c2ccc3cc(Cl)ccc3c2)CCN1c1ccc(-c2ccccc2)cn1 (stereo not given),>100 µM
